How the values were obtained:
[1] = test system: green peach aphid (Myzus persicae); assay: Myzus test (spray treatment); format: in vivo; conditions: 100 g/ha, spray treatment of Chinese cabbage discs
Experimental: Myzus Test—(Spray Treatment) Solvents: 78 parts by weight of acetone 1.5 parts by weight of dimethylformamide Emulsifier: 0.5 part by weight of alkylaryl polyglycol ether To produce a suitable preparation of active compound, 1 part by weight of active compound is mixed with the stated amount of solvents and the stated amount of emulsifier, and the concentrate is diluted with emulsifier-containing water to the desired concentration. Discs of Chinese cabbage (Brassica pekinensis) which are infested by all stages of the green peach aphid (Myzus persicae) are sprayed with a preparation of active compound of the desired concentration. After the desired period of time, the effect in % is determined. 100% means that all aphids have been killed; 0% means that none of the aphids have been killed.

Setaria [2] = assay: Herbicidal pre-emergence action, greenhouse; format: in vivo; conditions: 1000 g a.i./ha, visual assessment after 2 to 3 weeks, 100% = plants have died
Description: (§1) 1. Herbicidal Pre-emergence Action Seeds of monocotyledonous and dicotyledonous weed and crop plants are placed into sandy loam and covered with soil. The test compounds, formulated in the form of emulsion concentrates (EC), are, in various dosages with a water application rate of 800 l/ha (converted), with wetting agent added, applied to the surface of the covering soil. After the treatment, the pots are placed in a greenhouse and kept under good growth conditions for the test plants. The visual assessment of the emergence damage on the test plants is carried out after a trial period of 2 to 3 weeks by comparison with untreated controls (herbicidal effect in percent (%): 100% effect=the plants have died, 0% effect=like control plants).

Lolium [3] = assay: Herbicidal pre-emergence action, greenhouse; format: in vivo; conditions: 1000 g a.i./ha, visual assessment after 2 to 3 weeks, 100% = plants have died
Description: as §1

Setaria [4] = assay: Herbicidal post-emergence action, greenhouse; format: in vivo; conditions: 1000 g a.i./ha, rated visually after 2 weeks, 100% = plants have died
Experimental: (§2) 2. Herbicidal Post-emergence Action Seeds of monocotyledonous and dicotyledonous weed and crop plants are placed into sandy loam, covered with soil and cultivated in a greenhouse under good growth conditions. About 2 weeks after sowing, the test plants are treated at the one-leaf stage. The test compounds, formulated as emulsion concentrates (EC), are, in various dosages with a water application rate of 800 l/ha (converted), with wetting agents added, sprayed onto the green parts of the plants. After the test plants have, been kept in the greenhouse under optimum growth conditions for 2 weeks, the effect of the preparations is rated visually in comparison to untreated controls (herbicidal effect in percent (%): 100% effect=the plants have died, 0% effect=like control plants).

Echinoclora = assay: Herbicidal post-emergence action, greenhouse; format: in vivo; conditions: 1000 g a.i./ha, rated visually after 2 weeks, 100% = plants have died
Experimental: as §2

Lolium [5] = assay: Herbicidal post-emergence action, greenhouse; format: in vivo; conditions: 1000 g a.i./ha, rated visually after 2 weeks, 100% = plants have died
Experimental: as §2

Structure (SMILES) | melting point [°C] | Kill rate in % after 5 d [1] [%] | herbicidal effect in percent, Setaria (Setaria [2]) [%] | herbicidal effect in percent, Lolium (Lolium [3]) [%] | herbicidal effect in percent, Setaria (Setaria [4]) [%] | herbicidal effect in percent, Echinoclora (Echinoclora) [%] | herbicidal effect in percent, Lolium (Lolium [5]) [%]
Cc1scnc1-c1c(O)n2n(c1=O)CCCC2 (single isomer, unassigned) [Example I-3-b-2] | 86 |  |  |  |  |  | 
Cc1scnc1-c1c(O)n2n(c1=O)CCCC2 (single isomer, unassigned) [Example I-3-b-3] | 182 |  |  |  |  |  | 
CCCc1cc(-c2ccc(Cl)cc2)nn1-c1c(O)n2n(c1=O)CCCC2 [Example I-3-a-1] |  | 100 | 100 | 100 | 100 | 100 | 90

— patent US7420062B2, “Hetaryl-substituted pyrazolidindione derivatives with pesticidal characteristics” (Bayer CropScience, AG, priority 2003, dated 2008)
